≈ marks a conversion by molar mass, not a printed value. Read-outs that look alike come from different tables or passages of the source.
Experiments:
A431 cells = assay: Cell proliferation assay (SRB), A431; assay type: cell-based; conditions: Homo sapiens, A-431, 48 h, read-out: CELL IC50 A431
BT474 cells = assay: Cell proliferation assay (SRB), BT474; assay type: cell-based, human; conditions: Homo sapiens, BT-474, 144 h, read-out: CELL IC50 BT474
BT474 xenografts = assay: BT474 tumor xenograft in nude mice; assay type: in vivo, mouse; conditions: day 21
SK-Br-3 cells = assay: Cell proliferation assay (SRB), SK-Br-3; assay type: cell-based; conditions: Homo sapiens, SK-BR-3, 48 h, read-out: CELL IC50 SKBr3
MDA-MB-435 cells = assay: Cell proliferation assay (SRB), MDA-MB-435; assay type: cell-based; conditions: Homo sapiens, MDA-MB-435, 48 h, read-out: CELL IC50 MDA-MB-435
[1] = system: HER-2 overexpressing human xenograft models; assay: HER-2 overexpressing human xenograft models (overall); assay type: in vivo, mouse; conditions: for MED in the HER-2 overexpressing human xenograft models: mouse, in vivo
3T3 cells = assay: Cell proliferation assay (SRB), 3T3; assay type: cell-based, mouse; conditions: Mus musculus
[2] = biological target: mouse fibroblast cell line transfected with the HER-2 oncogene (3T3/neu) (UniProt P04626, cells depend on it, species not given); assay: Cell proliferation assay (SRB), 3T3/neu; assay type: cell-based
[3] = system: xenografts of 3T3/neu cells; assay: 3T3/neu tumor xenograft in nude mice; assay type: in vivo, mouse; conditions: for tumor growth inhibition: day 21
SW620 cells = assay: Cell proliferation assay (SRB), SW620; assay type: cell-based; conditions: Homo sapiens, SW-620, 48 h, read-out: CELL IC50 SW620
[4] = biological target: T1, recombinant cytoplasmic domain of HER-2 (Homo sapiens, UniProt P04626); assay: Cell-free autophosphorylation kinase assay (ELISA), HER-2; assay type: biochemical
T1 construct: In a cell-free autophosphorylation assay using the recombinant cytoplasmic domain of HER-2
T1 sequence (P04626 676-1255 limits assumed): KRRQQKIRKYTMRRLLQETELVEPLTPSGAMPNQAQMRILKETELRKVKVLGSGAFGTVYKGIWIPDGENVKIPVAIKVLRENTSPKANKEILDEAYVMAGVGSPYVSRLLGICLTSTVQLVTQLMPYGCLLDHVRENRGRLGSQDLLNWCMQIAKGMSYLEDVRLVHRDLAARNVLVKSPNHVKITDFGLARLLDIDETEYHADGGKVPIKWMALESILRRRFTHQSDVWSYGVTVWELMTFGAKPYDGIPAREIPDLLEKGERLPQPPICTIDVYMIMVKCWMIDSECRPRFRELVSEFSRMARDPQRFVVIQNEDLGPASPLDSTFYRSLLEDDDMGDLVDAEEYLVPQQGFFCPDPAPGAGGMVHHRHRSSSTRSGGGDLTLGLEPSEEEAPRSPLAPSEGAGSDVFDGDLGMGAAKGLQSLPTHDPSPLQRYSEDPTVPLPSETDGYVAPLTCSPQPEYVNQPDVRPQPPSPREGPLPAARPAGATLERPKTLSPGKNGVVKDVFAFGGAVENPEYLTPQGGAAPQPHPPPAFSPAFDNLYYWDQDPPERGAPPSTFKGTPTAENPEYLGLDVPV

xenografts of SK-OV-3 = assay: SK-OV-3 tumor xenograft in nude mice; assay type: in vivo, mouse; conditions: day 35
Her-2 = biological target: T2, Her-2 (Homo sapiens, UniProt P04626); assay: Her-2 receptor phosphorylation in BT474 cells (immunoblot); assay type: cell-based
T2 construct: For Her-2 and EGFR phosphorylation assays, cells (BT474 and A431, respectively) were incubated with various concentrations of compound; endogenous in cells; host or cells: BT474
T2 sequence (P04626 23-1255): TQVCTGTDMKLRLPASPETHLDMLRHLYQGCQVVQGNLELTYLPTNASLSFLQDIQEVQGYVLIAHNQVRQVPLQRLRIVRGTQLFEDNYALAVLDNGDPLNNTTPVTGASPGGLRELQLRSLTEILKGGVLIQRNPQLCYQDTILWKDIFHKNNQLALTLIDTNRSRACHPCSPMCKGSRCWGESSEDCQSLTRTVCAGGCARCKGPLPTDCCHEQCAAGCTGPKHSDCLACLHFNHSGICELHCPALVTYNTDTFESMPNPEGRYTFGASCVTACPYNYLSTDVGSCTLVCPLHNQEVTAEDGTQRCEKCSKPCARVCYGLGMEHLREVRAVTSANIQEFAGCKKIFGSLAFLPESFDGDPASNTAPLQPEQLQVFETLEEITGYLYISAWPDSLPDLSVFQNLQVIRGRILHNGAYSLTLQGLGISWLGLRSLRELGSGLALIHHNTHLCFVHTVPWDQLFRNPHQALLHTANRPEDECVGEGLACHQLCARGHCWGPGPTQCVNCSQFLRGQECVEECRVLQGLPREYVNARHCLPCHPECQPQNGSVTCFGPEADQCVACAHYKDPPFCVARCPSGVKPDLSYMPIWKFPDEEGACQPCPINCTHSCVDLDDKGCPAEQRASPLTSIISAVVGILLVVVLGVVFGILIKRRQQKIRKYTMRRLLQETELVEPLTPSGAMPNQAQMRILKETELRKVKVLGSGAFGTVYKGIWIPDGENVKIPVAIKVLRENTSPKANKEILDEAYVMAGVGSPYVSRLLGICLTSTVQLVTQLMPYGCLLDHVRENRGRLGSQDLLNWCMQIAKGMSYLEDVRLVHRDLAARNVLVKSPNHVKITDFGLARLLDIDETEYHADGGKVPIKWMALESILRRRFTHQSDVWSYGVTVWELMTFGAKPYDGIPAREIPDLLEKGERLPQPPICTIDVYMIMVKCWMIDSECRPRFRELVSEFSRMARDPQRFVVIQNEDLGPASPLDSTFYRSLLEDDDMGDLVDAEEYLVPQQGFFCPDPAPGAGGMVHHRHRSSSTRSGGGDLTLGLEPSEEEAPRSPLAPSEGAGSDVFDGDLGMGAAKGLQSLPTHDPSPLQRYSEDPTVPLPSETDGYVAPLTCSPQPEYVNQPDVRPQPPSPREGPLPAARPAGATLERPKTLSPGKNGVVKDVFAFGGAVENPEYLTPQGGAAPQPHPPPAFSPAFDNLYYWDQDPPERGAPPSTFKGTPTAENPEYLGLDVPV

EGFR [5] = biological target: T3, EGFR (Homo sapiens, UniProt P00533); assay: EGFR receptor phosphorylation in A431 cells (immunoblot); assay type: cell-based; set-up: They also repressed EGF-dependent phosphorylation of EGFR in A431 cells; endogenous in cells; host or cells: A431; conditions: for IC50 receptor phosphorylation A431: EGFR phosphorylation, 3 hours at 37° C., immunoblot; for IC50: span over the three compounds, read-out: EGF-dependent phosphorylation of EGFR in A431 cells IC50
Target sequence in this assay (P00533 25-1210): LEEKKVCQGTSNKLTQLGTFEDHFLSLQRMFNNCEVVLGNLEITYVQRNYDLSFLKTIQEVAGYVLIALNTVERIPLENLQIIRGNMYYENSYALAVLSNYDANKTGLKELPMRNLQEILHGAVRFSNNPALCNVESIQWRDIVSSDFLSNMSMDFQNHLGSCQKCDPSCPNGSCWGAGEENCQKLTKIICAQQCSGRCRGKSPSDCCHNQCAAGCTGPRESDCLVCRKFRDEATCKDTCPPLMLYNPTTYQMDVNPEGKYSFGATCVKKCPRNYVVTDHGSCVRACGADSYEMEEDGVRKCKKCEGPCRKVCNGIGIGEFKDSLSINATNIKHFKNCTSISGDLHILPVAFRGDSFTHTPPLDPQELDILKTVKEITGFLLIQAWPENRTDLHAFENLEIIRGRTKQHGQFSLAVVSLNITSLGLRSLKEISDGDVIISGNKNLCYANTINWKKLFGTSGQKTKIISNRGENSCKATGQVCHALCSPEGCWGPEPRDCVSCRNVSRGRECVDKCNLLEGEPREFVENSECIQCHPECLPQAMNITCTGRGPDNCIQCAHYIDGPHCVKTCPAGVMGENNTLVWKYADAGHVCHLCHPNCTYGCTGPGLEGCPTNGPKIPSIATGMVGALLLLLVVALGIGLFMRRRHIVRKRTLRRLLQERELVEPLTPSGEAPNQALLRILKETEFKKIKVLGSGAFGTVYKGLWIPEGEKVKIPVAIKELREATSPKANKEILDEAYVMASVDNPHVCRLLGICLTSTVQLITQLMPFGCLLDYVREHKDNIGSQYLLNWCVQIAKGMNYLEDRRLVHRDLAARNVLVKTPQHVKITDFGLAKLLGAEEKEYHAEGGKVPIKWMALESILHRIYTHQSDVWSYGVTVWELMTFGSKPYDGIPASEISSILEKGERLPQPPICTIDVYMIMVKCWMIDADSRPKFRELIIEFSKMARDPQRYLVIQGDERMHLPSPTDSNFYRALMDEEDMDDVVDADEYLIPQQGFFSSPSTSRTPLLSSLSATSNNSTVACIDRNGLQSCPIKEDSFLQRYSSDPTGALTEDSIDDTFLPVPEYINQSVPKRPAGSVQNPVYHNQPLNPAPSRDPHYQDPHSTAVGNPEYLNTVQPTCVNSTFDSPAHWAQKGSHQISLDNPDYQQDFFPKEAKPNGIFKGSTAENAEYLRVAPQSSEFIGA

EGFR [6] = biological target: T3, EGFR; assay: Cell-free autophosphorylation kinase assay (ELISA), EGFR; assay type: biochemical; set-up: Purified recombinant C-terminal fragment of each enzyme is incubated with ATP; conditions: read-out: Enzyme IC50 EGFR (converted)
Target sequence in this assay (P00533 669-1210 limits assumed): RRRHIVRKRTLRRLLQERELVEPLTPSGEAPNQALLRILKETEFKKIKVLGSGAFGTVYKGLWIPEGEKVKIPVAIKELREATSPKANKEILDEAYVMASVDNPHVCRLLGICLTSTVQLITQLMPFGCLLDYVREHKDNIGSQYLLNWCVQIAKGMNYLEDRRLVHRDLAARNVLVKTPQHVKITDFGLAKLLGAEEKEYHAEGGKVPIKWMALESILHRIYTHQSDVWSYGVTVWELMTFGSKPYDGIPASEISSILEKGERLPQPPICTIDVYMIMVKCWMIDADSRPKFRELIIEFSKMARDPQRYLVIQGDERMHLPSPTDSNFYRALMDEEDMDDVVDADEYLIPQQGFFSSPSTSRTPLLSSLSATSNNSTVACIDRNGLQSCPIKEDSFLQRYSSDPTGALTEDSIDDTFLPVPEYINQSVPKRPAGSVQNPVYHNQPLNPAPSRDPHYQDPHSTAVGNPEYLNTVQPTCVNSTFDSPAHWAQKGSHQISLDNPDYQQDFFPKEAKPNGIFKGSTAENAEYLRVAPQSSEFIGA

xenografts of SUM-190 = assay: SUM-190 tumor xenograft in nude mice; assay type: in vivo, mouse; conditions: 40 mg/kg/day PO, day 28
[7] = NIH3T3, 48 h, EGFR −, Her-2 −, 2 days, SRB, read-out: CELL IC50 3T3
[8] = NIH3T3, span over the three compounds, read-out: IC50 isogenic untransfected cells (3T3)
[9] = Her-2 phosphorylation, 3 hours at 37° C., immunoblot, read-out: IC50 receptor phosphorylation BT474 (converted)
[10] = ligand-independent receptor phosphorylation decreased by 50% (IC50) in BT474 cells, span over the three compounds
[11] = EGFR −, Her-2 +++, 2 days, SRB, read-out: CELL IC50 3T3/NEU (converted)
[12] = HER-2 enzyme activity reduced by 50% (IC50), span over the three inhibitors

SMILES	maximum tumor growth inhibition (BT474 xenografts; 10 mg/kg/day PO) [%]	maximum tumor growth inhibition (BT474 xenografts; 40 mg/kg/day PO) [%]	MED in the HER-2 overexpressing human xenograft models [1] [mg/kg/day]	tumor growth inhibition ([3]; 20 mg/kg/day PO) [%]	tumor growth inhibition ([3]; 40 mg/kg/day PO) [%]	tumor growth inhibition ([3]; 80 mg/kg/day PO) [%]	inhibition of the HER-2 enzyme (in words) [4]	IC50 (A431 cells; EGFR +++, Her-2 +, 2 days, SRB) [mg/L]	IC50 (BT474 cells; EGFR +, Her-2 +++, 6 days, SRB) [mg/L]	IC50 (SK-Br-3 cells; EGFR −, Her-2 +++, 2 days, SRB) [mg/L]	IC50 (MDA-MB-435 cells; EGFR −, Her-2 −, 2 days, SRB) [mg/L]	IC50 (3T3 cells; [7]) [mg/L]	IC50 (3T3 cells; [8]) [µM]	IC50 (Her-2; [9]) [µM]	IC50 (Her-2; [10]) [µM]	IC50 receptor phosphorylation A431 (EGFR [5]) [mg/L]	IC50 (EGFR [5]) [µM]	GI50 [2, 11] [µM]	IC50 (SW620 cells; EGFR −, Her-2 −, 2 days, SRB) [mg/L]	IC50 (EGFR [6]) [µM]	also measured
CCOc1cc2ncc(C#N)c(Nc3ccc(OCc4ccccn4)c(Cl)c3)c2cc1NC(=O)/C=C/CN(C)C [Example 2, (E)-N-{4-[3-chloro-4-(2-pyridinylmethoxy)anilino]-3-cyano-7-ethoxy-6-quinolinyl}-4-(dimethylamino)-2-butenamide]	76	95	~10	53	95	98	potent inhibitors	–	–	–	–	–	–	–	–	–	–	–	–	–	IC50 (A431 cells): 0.045 mg/L (≈ 0.0808 µM); IC50 (BT474 cells): 0.0013 mg/L (≈ 0.00233 µM); IC50 (SK-Br-3 cells): 0.001 mg/L (≈ 0.0018 µM); IC50 (MDA-MB-435 cells): 0.44 mg/L (≈ 0.79 µM); IC50 (3T3 cells; NIH3T3, 48 h, read-out: CELL IC50 3T3): 0.39 mg/L; IC50 (3T3 cells; NIH3T3, read-out: IC50 isogenic untransfected cells (3T3)): 0.683 to 0.906 µM; GI50 ([2]; read-out: CELL IC50 3T3/NEU, mouse fibroblast cell line transfected with the her-2 oncogene (3t3/neu)): 0.00323 µM; IC50 (SW620 cells): 0.44 mg/L (≈ 0.79 µM)
CCOc1cc2ncc(C#N)c(Nc3ccc(OCc4cccc(F)c4)c(Cl)c3)c2cc1NC(=O)/C=C/CN(C)C [Example 3, (E)-N-(4-{3-chloro-4-[(3-fluorobenzyl)oxy]anilino}-3-cyano-7-ethoxy-6-quinolinyl)-4-(dimethylamino)-2-butenamide]	59	96	10	65	97	99	potent inhibitors	0.069 (≈ 0.12 µM)	0.0024 (≈ 0.00418 µM)	0.0015 (≈ 0.00261 µM)	0.51 (≈ 0.888 µM)	0.52	0.683 to 0.906	0.0226	0.005 to 0.023	0.0042 (≈ 0.00732 µM)	0.003 to 0.007	0.00401	0.29 (≈ 0.505 µM)	0.0331	tumor behaviour after treatment was completed (in words) ([1]; after end of treatment): evidence of re-growth; tumor regression (in words) ([1]; during dosing): no decrease in tumor size below the initial size; tumor growth inhibition (xenografts of SK-OV-3; 20 mg/kg/day PO): 86%; tumor growth inhibition (xenografts of SK-OV-3; 60 mg/kg/day PO): 91%; tumor growth inhibition, statistically-significant ([3]; 10 mg/kg/day PO, two other independent tests): 21-33%; minimum efficacious dose (MED) ([3]; smallest dose with sustained, statistically-significant (p<0.05) reduction of tumor growth): 10 mg/kg/day; tumor growth inhibition (xenografts of SUM-190): 94%; IC50 [4, 12]: 0.033 to 0.065 µM; Enzyme IC50 HER-2 ([4]; autophosphorylation, ELISA): 0.019 mg/L
CCOc1cc2ncc(C#N)c(Nc3ccc(OCc4ccccc4)c(Cl)c3)c2cc1NC(=O)/C=C/CN(C)C [Example 1, (E)-N-{4-[4-(benzyloxy)-3-chloroanilino]-3-cyano-7-ethoxy-6-quinolinyl}-4-(dimethylamino)-2-butenamide]	–	–	–	–	–	–	potent inhibitors	0.062 (≈ 0.111 µM)	0.0014 (≈ 0.00252 µM)	0.0015 (≈ 0.0027 µM)	0.47 (≈ 0.845 µM)	0.38	0.683 to 0.906	0.0135	0.005 to 0.023	0.0031 (≈ 0.00557 µM)	0.003 to 0.007	0.00522	0.24 (≈ 0.432 µM)	0.0504	IC50 [4, 12]: 0.033 to 0.065 µM; IC50 ([4]; autophosphorylation, ELISA, read-out: Enzyme IC50 HER-2 (converted)): 0.0647 µM
